Test results published in ChEMBL document CHEMBL4765341, “A series of octahydroquinazoline-5-ones as novel inhibitors against dengue virus” (Eur J Med Chem, 2020).
The source made the active and inactive calls. The calls are words filed in the database; no cut-off is given here.

Tests used:
dengue virus type 2 [1] = assay: Antiviral activity against DENV-2 infected in BHK-21 cells assessed as cytopathic effect after 96 hrs by LDH assay; format: functional, organism-based; conditions: for EC50: BHK-21, 96 h
[2] = Cytotoxicity against golden hamster BHK-21 cells incubated for 48 hrs by MTT assay; format: cell-based, Mesocricetus auratus
[3] = Selectivity index, ratio of CC50 for golden hamster BHK-21 cells EC50 for DENV-2 infected in BHK-21 cells; format: toxicity, cell-based; conditions: read-out: Selectivity Index
BHK-21 [4] = assay: Reduction in viral structure E protein expression in second round DENV-2 infected golden hamster BHK-21 cells assessed in new virions at 0.5 to 10 uM measured after 24 hrs by Western blot analysis relative to control; format: functional, cell-based; conditions: dengue virus type 2, dose 0.5-10 µM
BHK-21 [5] = assay: Binding affinity to MTase domain of NS5 in DENV-2 infected in BHK-21 cells by isothermal titration calorimetry assay; conditions: dengue virus type 2
[6] = Reduction in viral structure E protein expression in DENV-2 infected golden hamster BHK-21 cells at 10 uM by Western blot analysis relative to control; format: functional, dengue virus type 2; conditions: Dengue virus
dengue virus type 2 [7] = assay: Antiviral activity against second round DENV-2 infected in BHK-21 cells assessed as reduction in new virion infectivity measured after 24 hrs by focus-forming assay; format: functional, organism-based
BHK-21 [8] = assay: Binding affinity to RdRp domain of NS5 in DENV-2 infected in BHK-21 cells by isothermal titration calorimetry assay; conditions: dengue virus type 2
BHK-21 [9] = assay: Reduction in viral structure E protein expression in second round DENV-2 infected golden hamster BHK-21 cells assessed in new virions at 0.5 to 10 uM measured after 24 hrs by confocal microscopy relative to control; format: functional, cell-based; conditions: dengue virus type 2, dose 0.5-10 µM
BHK-21 [10] = assay: Reduction in viral structure E protein expression in DENV-2 infected golden hamster BHK-21 cells at 2.5 uM by Western blot analysis relative to control; format: functional, cell-based; conditions: dengue virus type 2

SMILES | EC50 (dengue virus type 2 [1]) [µM] | other results
CC(C)C1N(c2ccccc2)CC2=C(CC(C)(C)CC2=O)N1c1ccccc1 (centres undefined) | > 20 | –
CC1(C)CC(=O)C2=C(C1)N(c1ccc(Oc3ccccc3)cc1)C(c1ccc(Br)cc1)N(c1ccc(Cl)cc1)C2 (centres undefined) | > 20 | –
CC1(C)CC(=O)C2=C(C1)N(Cc1ccccc1)C(c1ccccc1)N(Cc1ccccc1)C2 (centres undefined) | > 20 | –
CC1(C)CC(=O)C2=C(C1)N(c1ccccc1)C(c1ccc(Br)cc1)N(c1ccc(Oc3ccccc3)cc1)C2 (centres undefined) | 1.85 | CC50 at 48 h [2]: 10.9 µM; selectivity ratio [3]: 5.89
CC1(C)CC(=O)C2=C(C1)N(c1ccccc1)C(c1ccc(Br)cc1)N(Cc1ccccc1)C2 (centres undefined) | > 20 | –
CC1(C)CC(=O)C2=C(C1)N(c1ccccc1)C(c1ccc(OCc3ccccc3)cc1)N(c1ccccc1)C2 (centres undefined) | 2.61 | –
CC1(C)CC(=O)C2=C(C1)N(c1ccccc1)C(c1ccc(Br)cc1)N(c1ccccc1Cl)C2 (centres undefined) | > 20 | –
COc1ccc(N2CC3=C(CC(C)(C)CC3=O)N(c3ccccc3)C2c2ccc(Br)cc2)cc1 (centres undefined) | 5.42 | –
CC1(C)CC(=O)C2=C(C1)N(c1ccccc1)C(c1ccc(Br)cc1)N(c1ccc(C(C)(C)C)cc1)C2 (centres undefined) | 5.33 | –
CC1(C)CC(=O)C2=C(C1)N(c1ccc(-c3ccccc3)cc1)C(c1ccc(Br)cc1)N(c1ccc(Cl)cc1)C2 (centres undefined) | > 20 | –
CC1(C)CC(=O)C2=C(C1)N(c1ccc3ccccc3c1)C(c1ccc(Br)cc1)N(c1ccc(Cl)cc1)C2 (centres undefined) | 13.5 | –
COc1cc(C2N(c3ccccc3)CC3=C(CC(C)(C)CC3=O)N2c2ccccc2)cc(OC)c1O (centres undefined) | > 20 | –
CC1(C)CC(=O)C2=C(C1)N(c1ccccc1)C(c1ccc(Br)cc1)N(c1ccc3ccccc3c1)C2 (centres undefined) | 1.77 | –
CC1(C)CC(=O)C2=C(C1)N(c1ccc(Cl)cc1)C(c1ccc(Br)cc1)N(c1ccc(Cl)cc1)C2 (centres undefined) | 4.33 | –
CC1(C)CC(=O)C2=C(C1)N(c1ccccc1)C(c1ccc(Br)cc1)N(c1ccc(-c3ccccc3)cc1)C2 (centres undefined) | > 20 | –
CC1(C)CC(=O)C2=C(C1)N(c1ccc(F)cc1)C(c1ccc(Br)cc1)N(c1ccc(Cl)cc1)C2 (centres undefined) | 2.64 | CC50 at 48 h [2]: > 20 µM; selectivity ratio [3]: > 7.58
CC1(C)CC(=O)C2=C(C1)N(c1ccccc1)C(c1ccc(Br)cc1)N(c1ccc(Cl)cc1)C2 (centres undefined) | 1.38 | CC50 at 48 h [2]: 12.7 µM; selectivity ratio [3]: 9.18
CCCCC1N(c2ccccc2)CC2=C(CC(C)(C)CC2=O)N1c1ccccc1 (centres undefined) | > 20 | –
COc1ccc(N2C3=C(CN(c4ccc(Cl)cc4)C2c2ccc(Br)cc2)C(=O)CC(C)(C)C3)cc1 (centres undefined) | 2.6 | CC50 at 48 h [2]: > 20 µM; selectivity ratio [3]: > 7.69
CC1(C)CC(=O)C2=C(C1)N(c1ccccc1)C(c1ccc(Br)cc1)N(c1ccc(Br)cc1)C2 (centres undefined) | 2.33 | –
CC(C)c1ccc(N2CC3=C(CC(C)(C)CC3=O)N(c3ccccc3)C2c2ccc(Br)cc2)cc1 (centres undefined) | 5.55 | –
CC1(C)CC(=O)C2=C(C1)N(c1ccccc1)C(c1ccc(Br)cc1)N(c1ccc(F)cc1)C2 (centres undefined) | 1.9 | CC50 at 48 h [2]: 10 µM; selectivity ratio [3]: 5.3
CC1(C)CC(=O)C2=C(C1)N(c1cccc(Cl)c1)C(c1ccc(Br)cc1)N(c1ccc(Cl)cc1)C2 (centres undefined) | 5.6 | –
CC1(C)CC(=O)C2=C(C1)N(c1ccc(Cc3ccccc3)cc1)C(c1ccc(Br)cc1)N(c1ccc(Cl)cc1)C2 (centres undefined) | > 20 | –

More lines, main results first:

EC50 (dengue virus type 2 [1]) [µM] | SMILES | other results
1.32 | CC1(C)CC(=O)C2=C(C1)N(c1ccccc1)C(c1cccc(C(F)(F)F)c1)N(c1ccccc1)C2 (centres undefined) | CC50 at 48 h [2]: 17.9 µM; selectivity ratio [3]: 13.5
5.96 | CC1(C)CC(=O)C2=C(C1)N(c1ccccc1)C(c1ccc(Cl)cc1)N(c1ccccc1)C2 (centres undefined) | –
> 20 | CC1(C)CC(=O)C2=C(C1)N(c1ccccc1)C(c1ccccc1)N(c1ccccc1)C2 (centres undefined) | –
3.6 | CC(C)c1ccc(C2N(c3ccccc3)CC3=C(CC(C)(C)CC3=O)N2c2ccccc2)cc1 (centres undefined) | –
1.31 | CC1(C)CC(=O)C2=C(C1)N(c1ccccc1)C(c1cccc(Br)c1)N(c1ccccc1)C2 (centres undefined) | inhibition (BHK-21 [4]): Active; Activity (BHK-21 [5]): inactive; inhibition at 10 µM [6]: 100%; Activity (dengue virus type 2 [7]): Active; Activity (dengue virus type 2 [1]): Dose-dependent effect; Activity (BHK-21 [8]): inactive; inhibition (BHK-21 [9]): Active; inhibition (BHK-21 [10]): Active; CC50 at 48 h [2]: > 20 µM; selectivity ratio [3]: > 15.3
> 20 | CC1(C)CC(=O)C2=C(C1)N(c1ccccc1)C(c1ccc(-c3ccccc3)cc1)N(c1ccccc1)C2 (centres undefined) | –
7.45 | CC1(C)CC(=O)C2=C(C1)N(c1ccccc1)C(c1ccc(C#N)cc1)N(c1ccccc1)C2 (centres undefined) | –
2.52 | CC1(C)CC(=O)C2=C(C1)N(c1ccccc1)C(c1ccc(OC(F)(F)F)cc1)N(c1ccccc1)C2 (centres undefined) | –
3.75 | CC1(C)CC(=O)C2=C(C1)N(c1ccccc1)C(c1ccc(C(F)(F)F)cc1)N(c1ccccc1)C2 (centres undefined) | –
2.63 | CC1(C)CC(=O)C2=C(C1)N(c1ccccc1)C(c1ccc(OC(C)(C)C)cc1)N(c1ccccc1)C2 (centres undefined) | –
4.73 | CC1(C)CC(=O)C2=C(C1)N(c1ccccc1)C(c1ccc(Br)cc1)N(c1cccc(Cl)c1)C2 (centres undefined) | –
7.52 | COc1ccc(C2N(c3ccccc3)CC3=C(CC(C)(C)CC3=O)N2c2ccccc2)cc1 (centres undefined) | –
> 20 | CC1(C)CC(=O)C2=C(C1)N(c1ccccc1)C(c1ccc(O)cc1)N(c1ccccc1)C2 (centres undefined) | –
2.85 | CC1(C)CC(=O)C2=C(C1)N(c1ccccc1)C(c1ccc(Br)cc1)N(c1ccccc1)C2 (centres undefined) | CC50 at 48 h [2]: > 20 µM; selectivity ratio [3]: > 7.02
3.87 | CC1(C)CC(=O)C2=C(C1)N(c1ccccc1)C(c1cccc3ccccc13)N(c1ccccc1)C2 (centres undefined) | –
3.75 | CC1(C)CC(=O)C2=C(C1)N(c1ccccc1)C(c1ccc([N+](=O)[O-])cc1)N(c1ccccc1)C2 (centres undefined) | –
4.02 | CC1(C)CC(=O)C2=C(C1)N(c1ccccc1)C(c1ccc(Br)cc1)N(c1ccc(C(F)(F)F)cc1)C2 (centres undefined) | –
2.83 | CC1(C)CC(=O)C2=C(C1)N(c1ccccc1)C(c1cccc([N+](=O)[O-])c1)N(c1ccccc1)C2 (centres undefined) | –
3.24 | Cc1ccc(C2N(c3ccccc3)CC3=C(CC(C)(C)CC3=O)N2c2ccccc2)s1 (centres undefined) | –
1.84 | CC1(C)CC(=O)C2=C(C1)N(c1ccccc1)C(c1ccc(Br)cc1)N(c1ccc(OC(F)(F)F)cc1)C2 (centres undefined) | –
5.03 | CC(C)Oc1ccc(C2N(c3ccccc3)CC3=C(CC(C)(C)CC3=O)N2c2ccccc2)cc1 (centres undefined) | –
3.88 | CC1(C)CC(=O)C2=C(C1)N(c1ccccc1)C(c1ccccc1Br)N(c1ccccc1)C2 (centres undefined) | –
> 20 | CC1(C)CC(=O)C2=C(C1)N(c1ccccc1)C(c1ccc3ccccc3c1)N(c1ccccc1)C2 (centres undefined) | –
> 20 | CC1(C)CC(=O)C2=C(C1)N(c1ccccc1)C(c1ccc(F)cc1)N(c1ccccc1)C2 (centres undefined) | –
8.61 | CC1(C)CC(=O)C2=C(C1)N(c1ccccc1)C(c1ccc(C(C)(C)C)cc1)N(c1ccccc1)C2 (centres undefined) | –
> 20 | CC1(C)CC(=O)C2=C(C1)N(c1ccccc1)C(c1cccs1)N(c1ccccc1)C2 (centres undefined) | –
